These results are taken from PMC10442672, “Synthesis of amantadine clubbed N-aryl amino thiazoles as potent urease, α-amylase & α-glucosidase inhibitors, kinetic and molecular docking studies” (RSC Advances, 2023).

The target in series [1] is urease (Canavalia ensiformis, UniProt P07374). As to conditions: read-out: Urease IC50; 100 mM urea; pH 8.2; 37 °C; triplicate.
Series [2] deals with Bacillus subtilis, Staphylococcus aureus, Escherichia coli and Pseudomonas aeruginosa. The series is described as follows: Antibacterial disc diffusion assay, all four tested strains. The series is classed as cell-based. Here is the method: (§1) Anti-bactericidal activity of the compounds was determined by using disc diffusion method. […] The assay was performed in triplicate and Kanamycin was used as positive control. […] According to Yildiz et al.[39] the antibacterial activity of a substitution connected to a biologically active molecule may be increased.
(§2) Disc diffusion assay was used to determine the antibacterial potential of newly synthesised compounds as reported earlier.[45] For experiment, 1% inoculum of Bacillus subtilis, Staphylococcus aureus, Escherichia coli and Pseudomonas aeruginosa was transferred to autoclaved nutrient agar media (23 g l^−1) respectively. Then media were poured in respective plates and allowed to solidify. Samples (100 μM) and Kanamycin drug (10 μM) was loaded on sterile paper disc (5 mm) and these discs were placed on Petriplates at appropriate distance. Plates were incubated for 24 hours at 37 °C and zone of inhibition were measured using Vernier calliper.
On the technique in general: In agar diffusion tests the substance spreads into inoculated agar from a disc or well.

The nature of series [3]: DPPH assay (antioxidant potential). Conditions: DPPH 100 μM; 30 minutes at 37 °C; triplicate. Here is the method:
DPPH assay as reported earlier was used to determine the antioxidant potential of newly synthesised compound.[46] For experiment, […] (100 μM) solution was mixed with 5 μl of sample compounds and ascorbic acid (positive control) at concentration of 100, 50 and 25 μM in 96-well plate respectively. Plate was incubated in dark for 30 minutes at 37 °C and then absorbance was measured at 515 nm using Elx800 microtiter plate reader. The experiment was performed in triplicate and percentage scavenging was calculated as following:Percentage scavenging (%) = [1 − absorbance of sample/absorbance of control] × 100

In series [4] the target is α-amylase. It counts as biochemical. As to conditions: starch substrate; pH 6.8; 30 minutes at 50 °C; triplicate. The protocol:
α-Amylase inhibition assay was performed to calculate the enzyme inhibition potential of newly synthesised compounds.[48] […] In blank 40 μl starch and 50 μl phosphate buffer was added. […] Then absorbance was measured at 540 nm using Elx800 microtiter plate reader.

For series [5], the system named is Pseudomonas aeruginosa. The series is described as follows: Antibacterial disc diffusion assay. It counts as cell-based. Here is the method:
as §1, §2

In series [6] the test system is Staphylococcus aureus. In words: Antibacterial disc diffusion assay. It counts as cell-based. The protocol:
as §1, §2

The subject of series [7] is Bacillus subtilis. In words: Antibacterial disc diffusion assay. It counts as cell-based. As to conditions: for MIC / zone of inhibition at 100 µM: Bacillus subtilis. Here is the method: as §1, §2
The subject of series [8] is Escherichia coli. The series is described as follows: Antibacterial disc diffusion assay. It counts as cell-based. Here is the method: as §1, §2
The mark [9] stands for this setting: disc diffusion, samples 100 μM, Kanamycin 10 μM on disc, 24 hours at 37 °C.

≈ marks a conversion by molar mass, not a printed value. Where “and” joins values, the source holds several entries; their conditions need not be identical. Identical values can stand only once.

Sequence of urease (P07374 whole entry, looked up, the tested form may be a part): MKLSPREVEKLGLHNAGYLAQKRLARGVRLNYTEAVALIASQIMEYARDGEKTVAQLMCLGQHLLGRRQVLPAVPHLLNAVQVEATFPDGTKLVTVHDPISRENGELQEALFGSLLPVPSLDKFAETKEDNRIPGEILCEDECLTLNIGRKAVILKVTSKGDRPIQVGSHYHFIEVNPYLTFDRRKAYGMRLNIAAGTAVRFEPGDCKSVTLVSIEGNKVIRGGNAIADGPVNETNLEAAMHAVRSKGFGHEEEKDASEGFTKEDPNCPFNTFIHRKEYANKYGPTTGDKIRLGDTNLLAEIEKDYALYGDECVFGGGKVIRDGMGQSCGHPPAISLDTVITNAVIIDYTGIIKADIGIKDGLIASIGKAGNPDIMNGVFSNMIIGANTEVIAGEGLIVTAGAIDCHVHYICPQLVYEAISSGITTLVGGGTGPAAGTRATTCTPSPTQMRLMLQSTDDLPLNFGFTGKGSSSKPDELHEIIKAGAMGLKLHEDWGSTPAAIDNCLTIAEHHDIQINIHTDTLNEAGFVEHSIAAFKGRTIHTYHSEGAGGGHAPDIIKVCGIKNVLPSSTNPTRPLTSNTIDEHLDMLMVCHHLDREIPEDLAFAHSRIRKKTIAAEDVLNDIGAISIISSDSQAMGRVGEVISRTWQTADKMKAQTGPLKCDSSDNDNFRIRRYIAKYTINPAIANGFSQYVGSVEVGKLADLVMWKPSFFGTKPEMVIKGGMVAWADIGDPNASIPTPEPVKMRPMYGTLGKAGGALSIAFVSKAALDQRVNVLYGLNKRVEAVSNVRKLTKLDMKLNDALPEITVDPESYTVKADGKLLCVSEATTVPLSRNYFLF

As a reminder, the IC50 is the concentration that gives 50% inhibition. With `NC(N)=S` [Thiourea], the IC50 in series [1] turned out to be 1.33 µM.
A word on the melting point: it is the temperature, or range, at which the solid turns liquid. `COc1ccc(Nc2nc(C)c(C(=O)NC34CC5CC(CC(C5)C3)C4)s2)cc1` [Compound 6d, N-(Adamantan-1-yl)-4-methyl-2-((4-methoxyphenyl)amino)thiazole-5-carboxamide] had a melting point of 226 to 229 °C. The “antibacterial activity against tested bacterial strains” value (shortened to “antibacterial activity”) in series [2] was “no antibacterial activity”. In series [3], this compound yielded an IC50 of 19.2 ± 0.37 µM. The same compound displayed an IC50 in series [4] of 97.4 ± 1.53 µM.
Broadly, the MIC is the lowest concentration found to suppress growth. One may read the zone of inhibition as the size of the clear area around the sample on an inoculated plate. A higher zone of inhibition goes with a stronger effect on the plate. Take `Cc1nc(N)sc1C(=O)NC12CC3CC(CC(C3)C1)C2` [Compound 6a, N-(Adamantan-1-yl)-2-amino-4-methylthiazole-5-carboxamide]: the melting point is 256 to 257 °C. In series [2], the “antibacterial activity” value was “significant antibacterial activity”. In series [5] (Pseudomonas aeruginosa), this compound registered an MIC of 50 µM (≈ 14.6 µg/mL). For the same compound, the zone of inhibition at 100 µM in series [5] (Pseudomonas aeruginosa, disc diffusion, samples 100 μM, Kanamycin 10 μM on disc, 24 hours at 37 °C) worked out at 10 mm. Inhibition of growth in series [6] (Staphylococcus aureus) (MIC) required 75 µM (≈ 21.9 µg/mL). In [6] (Staphylococcus aureus, disc diffusion, samples 100 μM, Kanamycin 10 μM on disc, 24 hours at 37 °C), this compound had a zone of inhibition at 100 µM of 8 mm. The compound also yielded an MIC in [7] of 50 µM (≈ 14.6 µg/mL). Also, the zone of inhibition at 100 µM in series [7] (setting [9]) worked out at 13 mm. The compound also returned an MIC in [8] (Escherichia coli) of 50 µM (≈ 14.6 µg/mL). Also, the zone of inhibition at 100 µM in [8] (Escherichia coli, disc diffusion, samples 100 μM, Kanamycin 10 μM on disc, 24 hours at 37 °C) was determined as 11 mm. The compound further displayed an IC50 in series [3] of 157 ± 10.3 µM. In [4], this compound came in with an IC50 of 118.3 ± 0.71 µM.
Take `Cc1nc(Nc2cccc(Cl)c2)sc1C(=O)NC12CC3CC(CC(C3)C1)C2` [Compound 6f, N-(Adamantan-1-yl)-4-methyl-2-((3-chlorophenyl)amino)thiazole-5-carboxamide]: the melting point was 253 to 254 °C. Moreover, in series [2], the “antibacterial activity” value is given as “no antibacterial activity”. In addition, in series [3], half-maximal inhibition (IC50) was put at 136.7 ± 1.33 µM. Further, the IC50 in series [4] is > 100 µM.
For the compound `NC[C@H]1O[C@H](O[C@H]2[C@H](O)[C@@H](O[C@H]3O[C@H](CO)[C@@H](O)[C@H](N)[C@H]3O)[C@H](N)C[C@@H]2N)[C@H](O)[C@@H](O)[C@@H]1O` [Kanamycin, reference compound], the “MIC Pseudomonas aeruginosa” value in [5] was “MIC = 20 μM”. Also, in [5] (setting [9]), the “Antibacterial zone of inhibition Pseudomonas aeruginosa” value worked out at 22 mm. The “MIC Staphylococcus aureus” value in series [6] is listed as “MIC = 20 μM”. The “Antibacterial zone of inhibition Staphylococcus aureus” value in series [6] (setting [9]) came to 24 mm. In addition, in [7], the “MIC Bacillus subtilis” value is listed as “MIC = 25 μM”. Besides, the “Antibacterial zone of inhibition Bacillus subtilis” value in series [7] (setting [9]) worked out at 21 mm. Further, the “MIC Escherichia coli” value in series [8] is “MIC = 25 μM”. Besides, in [8] (setting [9]), the “Antibacterial zone of inhibition Escherichia coli” value is reported as 20 mm.
Regarding `COc1ccccc1Nc1nc(C)c(C(=O)NC23CC4CC(CC(C4)C2)C3)s1` [Compound 6e, N-(Adamantan-1-yl)-4-methyl-2-((2-methoxyphenyl)amino)thiazole-5-carboxamide], the melting point lay in the range of 210 to 212 °C. The “antibacterial activity” value in series [2] was “no antibacterial activity”. Further, in series [3], the 50% inhibitory concentration (IC50) is 110.3 ± 0.76 µM. In [4], the IC50 was > 100 µM and the “α-Amylase IC50” value was “inactive”.
For `Cc1nc(NC23CC4CC(CC(C4)C2)C3)sc1C(=O)NC12CC3CC(CC(C3)C1)C2` [Compound 6j, N-Adamantanyl-2-(((3s,5s,7s)-adamantan-1-yl)amino)-4-methylthiazole-5-carboxamide], the melting point lay within 250 to 253 °C. Further, inhibition in [3] was half-maximal at 137.9 ± 0.9 µM (IC50). Moreover, the IC50 in series [4] is > 100 µM.
In turn, `Cc1nc(Nc2ccccc2Cl)sc1C(=O)NC12CC3CC(CC(C3)C1)C2` [Compound 6g, N-(Adamantan-1-yl)-4-methyl-2-((2-chlorophenyl)amino)thiazole-5-carboxamide] returned a melting point of 202 to 203 °C. The “antibacterial activity” value in series [2] was “activity against one bacterial strain out of four”. Further, 75 µM (≈ 30.1 µg/mL) was the least that counted as inhibitory in series [7] (MIC). In [7] (setting [9]), the zone of inhibition at 100 µM is 7 mm. This compound also showed an IC50 in series [3] of 122 ± 6.54 µM. Also, the IC50 in series [4] is > 100 µM.
`Cc1nc(Nc2cccc(F)c2)sc1C(=O)NC12CC3CC(CC(C3)C1)C2` [Compound 6i, N-Adamantyl-2-((3-fluorophenyl)amino)-4-methylthiazole-5-carboxamide] registered a melting point of 220 to 225 °C. Also, the IC50 in [3] stood at 131 ± 1.11 µM. Besides, the IC50 in series [4] was > 100 µM.
In turn, `Cc1nc(Nc2ccc([N+](=O)[O-])cc2)sc1C(=O)NC12CC3CC(CC(C3)C1)C2` [Compound 6b, N-(Adamantan-1-yl)-4-methyl-2-((4-nitrophenyl)amino)thiazole-5-carboxamide] yielded a melting point of 300 to 303 °C. Further, the “antibacterial activity” value in series [2] is “no antibacterial activity”. In series [3], the IC50 was determined as 108 ± 1.93 µM. For the same compound, the IC50 in series [4] was > 100 µM.
In the case of `O=C1O[C@H]([C@@H](O)CO)C(O)=C1O` [Ascorbic acid, reference compound], the concentration for half-maximal inhibition (IC50) in series [3] is 0.892 µM and 0.89 µM.
Compound `Cc1nc(Nc2ccc(Br)cc2)sc1C(=O)NC12CC3CC(CC(C3)C1)C2` [Compound 6c, N-(Adamantan-1-yl)-4-methyl-2-((4-bromophenyl)amino)thiazole-5-carboxamide] displayed a melting point of 277 to 280 °C. Further, the “antibacterial activity” value in series [2] is on record as “activity against one bacterial strain out of four”. For the same compound, the lowest concentration to inhibit growth in series [7] (MIC) was 75 µM (≈ 33.5 µg/mL). In [7] (setting [9]), this compound came in with a zone of inhibition at 100 µM of 7 mm. The half-maximal inhibitory concentration (IC50) in [3] came out at 126 ± 2.66 µM. The IC50 in series [4] was > 100 µM.
Compound `Cc1nc(Nc2ccc(NS(C)(=O)=O)c(Oc3ccccc3)c2)sc1C(=O)NC12CC3CC(CC(C3)C1)C2` [Compound 6h, N-Adamantyl-4-methyl-2-((4-(methylsulfonamido)-3-phenoxyphenyl)amino) thiazole-5-carboxamide] had a melting point of 156 to 160 °C. In addition, the IC50 in series [3] was 64.1 ± 0.71 µM. In addition, in series [4], the IC50 was > 100 µM.
